Source: the OPERA property sets (Mansouri et al. 2018)

Settings: for log10 BCF / log10 biotransformation half-life (days): fish

Row | SMILES | melting point [°C] | boiling point [°C] | further results
1 | COc1cccc(OC)c1C(=O)O | – | – | log10 vapour pressure (mmHg): -6.72
2 | CCS(=O)(=O)c1ccccc1 | 42 | – | –
3 | Nc1ccccc1O | – | – | ready biodegradability: not readily biodegradable
4 | CNC(=O)Oc1ccccc1OC(C)C | 87 | – | log10 Koc (L/kg): 1.67; log10 vapour pressure (mmHg): -5.01; ready biodegradability: readily biodegradable
5 | COc1ccccc1Br | 2.5 | 216 | –
6 | Cc1cccc([N+](=O)[O-])c1N | 96 | – | –
7 | Cc1cccc(Cl)c1N | 2 | 215 | –
8 | Nc1ccc(C=CC(=O)O)cc1 | 122 | 285 | –
9 | Nc1cc2ccccc2cc1C(=O)O | 216 | – | –
10 | COc1ccc(O)c([N+](=O)[O-])c1 | 79 | – | log10 Henry constant (atm·m³/mol): -5.73
11 | CC(C)OC(=O)Nc1ccccc1 | 87.3 | – | log10 Koc (L/kg): 1.83; log10 vapour pressure (mmHg): -3.85
12 | CC(C)(C)S(=O)(=O)O | 113 | – | –
13 | FC(F)(F)C(F)(F)C(F)(F)C(F)(F)C(F)(F)C(F)(F)C(F)(F)Cl | – | 108 | –
14 | COCC(=O)N(c1c(C)cccc1C)C(C)C(=O)OC (stereo not drawn) | – | – | log10 Koc (L/kg): 1.57; log10 vapour pressure (mmHg): -4.93; ready biodegradability: not readily biodegradable
15 | CCCCl | -123 | 46.5 | log10 Koa: 2.24; log10 vapour pressure (mmHg): 2.54
16 | CCCCCCCCC(=O)CCCCCCCC | 53 | 252 | –
17 | Cc1cccc(N(C)C(=S)Oc2ccc3c(c2)C2CCC3C2)c1 (stereo not drawn) | 93 | – | –
18 | CC1=C(C(=O)Nc2ccccc2)SCCO1 | 91.5 | – | log10 Koc (L/kg): 2.41; log10 vapour pressure (mmHg): -6.82; ready biodegradability: readily biodegradable
19 | COCc1ccccc1 | -52.6 | 170 | log10 vapour pressure (mmHg): 0.22
20 | c1ccc2c(c1)ccc1[nH]c3ccc4ccccc4c3c12 | 158 | – | log10 Koc (L/kg): 6.03
21 | CN(C)CCc1c[nH]c2cccc(O)c12 | 174 | – | –
22 | CN1CCC(O)CC1 | 29 | 200 | –
23 | C=CCC[C@@H](C)CC | – | 113 | –
24 | O=C(O)CC(O)C(=O)O (stereo not drawn) | 131 | – | log10 vapour pressure (mmHg): -7.48; ready biodegradability: readily biodegradable

Row | SMILES | melting point [°C] | boiling point [°C] | further results
25 | FC(F)OC(F)C(F)(F)F (stereo not drawn) | – | 23.5 | log10 vapour pressure (mmHg): 2.82
26 | ClC=CBr | -86.7 | 84.6 | –
27 | CN=C(O)Oc1cccc(C)c1 | 76.5 | – | log10 vapour pressure (mmHg): -2.97; ready biodegradability: not readily biodegradable
28 | CCCCCCC(O)CCC (stereo not drawn) | -11 | 210 | –
29 | Cc1cccc(-c2cccc(C)c2)c1 | 9 | 280 | –
30 | Nc1cccc2ccccc12 | 49.2 | 301 | log10 Henry constant (atm·m³/mol): -6.95; log10 Koc (L/kg): 3.51; log10 vapour pressure (mmHg): -2.38; ready biodegradability: not readily biodegradable; log10 BCF: 1.4; log10 biotransformation half-life (days): -0.24
31 | Cc1cc(-c2ccccc2)nnc1NCCN1CCOCC1 | 122 | – | –
32 | CCOC(CN(C)C)OCC | – | 170 | –
33 | CNc1ccc(NCCO)c2c1C(=O)c1ccccc1C2=O | 187 | – | –
34 | CCCCCCCCCCCCCCCC(C)=O | 48 | 320 | –
35 | COP(=O)(OC)OC=C(Cl)Cl | -60 | 234 | log10 Koc (L/kg): 1.67; log10 vapour pressure (mmHg): -1.8; ready biodegradability: readily biodegradable; log10 BCF: -0.3
36 | Brc1cc(Oc2c(Br)c(Br)c(Br)c(Br)c2Br)c(Br)c(Br)c1Br | – | – | log10 BCF: 5.44
37 | CC(C)CCC(O)C(C)C (stereo not drawn) | – | 175 | –
38 | CCCCc1ccc(N)cc1 | – | 261 | –
39 | CN(C)C(=S)SC(=S)N(C)C | 110 | – | –
40 | O=C(c1ccccc1O)N1CCOCC1 | 175 | – | –
41 | NCc1ccco1 | – | 146 | –
42 | O=C1NCCCN1 | 265 | – | –
43 | COC(=O)c1ccccc1S(=O)(=O)NC(=O)Nc1nc(C)nc(OC)n1 | 162 | – | log10 Koc (L/kg): 1.54
44 | C[N+](C)(C)c1ccccc1.[I-] | 224 | – | –
45 | C[C@@H](N)C(C)(C)C | -20 | 102 | –
46 | c1cnc2cccnc2c1 | 75 | – | –
47 | CCC(C)C=O (stereo not drawn) | 91 | – | –
48 | CCOC(=O)C1(S(=O)(=O)c2ccc(C)cc2)CC1 | 75.5 | – | –

Row | SMILES | melting point [°C] | boiling point [°C] | further results
49 | Clc1cc(Cl)c2oc3c(Cl)c(Cl)cc(Cl)c3c2c1 | 204 | – | –
50 | N#Cc1cccc([N+](=O)[O-])c1 | 116 | – | –
51 | CC(C)C1CCCC1 | -111 | 126 | log10 vapour pressure (mmHg): 1.21
52 | CCC1(c2ccc(N)cc2)CCC(=O)NC1=O (stereo not drawn) | 150 | – | –
53 | N#CC1CC1 | – | 135 | –
54 | CCc1nccnc1CC | – | 181 | –
55 | CCCCOC(=O)CCC | -91.5 | 166 | log10 vapour pressure (mmHg): 0.258
56 | CN(C=O)c1ccccc1 | 14.5 | 243 | –
57 | O=C(O)C1CCCN1 (racemic) | 205 | – | –
58 | COc1cc(OC)nc(Oc2cccc(Oc3nc(OC)cc(OC)n3)c2C(=O)ON=C(c2ccccc2)c2ccccc2)n1 | 129 | – | –
59 | CC(C)C(=NO)C(C)C | 34 | 181 | –
60 | O=NN(CCO)CCO | – | – | ready biodegradability: readily biodegradable
61 | CN(C)C(=O)COC(=O)c1ccccc1 | 81.5 | – | –
62 | CCCCC(CC)COC(=O)c1ccccc1C(=O)OCC(CC)CCCC (stereo not drawn) | -55 | 384 | log10 Koc (L/kg): 4.94; log10 vapour pressure (mmHg): -6.85; ready biodegradability: not readily biodegradable; log10 BCF: 2.77; log10 biotransformation half-life (days): 0.44
63 | Cc1cc(Cl)ccc1Cl | 5 | 200 | –
64 | O=C(O)c1ccc(C(=O)O)c2c(C(=O)O)ccc(C(=O)O)c12 | 320 | – | –
65 | C(CCOCC1CO1)COCC1CO1 (stereo not drawn) | – | 266 | ready biodegradability: not readily biodegradable
66 | O=S1OCC2C(CO1)C1(Cl)C(Cl)=C(Cl)C2(Cl)C1(Cl)Cl (stereo not drawn) | 106 | – | log10 Henry constant (atm·m³/mol): -4.62; log10 Koc (L/kg): 4.11; log10 vapour pressure (mmHg): -6.17
67 | COC1(C)CC(c2ccccc2)c2c(c3ccccc3oc2=O)O1 (stereo not drawn) | 166 | – | –
68 | COC=O | -99 | 31.7 | log10 Henry constant (atm·m³/mol): -3.65; log10 Koa: 1.75; log10 vapour pressure (mmHg): 2.77
69 | COC(=O)CC(=O)OC | -61.9 | 181 | log10 vapour pressure (mmHg): -0.0458
70 | CC1=CCC2C(C)(C)CCC[C@]2(C)[C@@]12CC[C@](C)(CC(=O)O)O2 (stereo partly drawn) | 100 | – | –
71 | ClCCI | -15.6 | 140 | –
72 | CCNc1nc(NCC)nc(SC)n1 | – | – | log10 Koc (L/kg): 2.3

Row | SMILES | melting point [°C] | boiling point [°C] | further results
73 | NN1C(=O)CSC1=S | 102 | – | –
74 | CCCCCCCCCCC | -25.6 | 196 | log10 biodegradation half-life (days): 0.845; log10 vapour pressure (mmHg): -0.385; ready biodegradability: readily biodegradable
75 | CC1(C)CC(C)(c2ccccc2)c2ccccc21 (stereo not drawn) | 52.5 | 308 | –
76 | C=C1/C(=C\C=C2/CCC[C@]3(C)[C@@H]([C@H](C)CCCC(C)(C)O)CC[C@@H]23)C[C@@H](O)C[C@@H]1O | 115 | – | –
77 | CC(C)(N=C=O)c1cccc(C(C)(C)N=C=O)c1 | – | – | log10 vapour pressure (mmHg): -2.49
78 | O=C(Oc1ccccc1)c1ccccc1 | 71 | 314 | log10 Koc (L/kg): 3.16; log10 vapour pressure (mmHg): -2.77
79 | Clc1cc(Cl)nc(-c2ccccc2)n1 | 96.9 | – | log10 vapour pressure (mmHg): -4.05
80 | CCCCC(CCCC)CCCC | – | 218 | –
81 | Clc1ccc(Oc2c(Cl)cc(Cl)c(Cl)c2Cl)c(Cl)c1 | – | – | log10 biotransformation half-life (days): 2.76
82 | CC(C)(Cl)Cl | -33.8 | 69.3 | –
83 | Cc1cccc(S)c1 | -20 | 195 | log10 vapour pressure (mmHg): -0.257
84 | CNCc1ccco1 | – | 149 | –
85 | C1COCCO1 | 11.8 | 102 | log10 Henry constant (atm·m³/mol): -5.32; log10 Koa: 3.18; log10 Koc (L/kg): 1.23; log10 vapour pressure (mmHg): 1.58; ready biodegradability: not readily biodegradable; log10 BCF: -0.3
86 | CC(=O)O[C@]1(C(C)=O)CC[C@H]2[C@@H]3C=C(C)C4=CC(=O)CC[C@]4(C)[C@H]3CC[C@@]21C | 214 | – | –
87 | C[C@]12CCC(=O)C=C1CC[C@@H]1[C@@H]2C(=O)C[C@@]2(C)[C@H]1CC[C@]2(O)[C@H](O)CO | 208 | – | –
88 | CC=CC(C)=O | – | 122 | –
89 | Cc1ccc(N(C)C)cc1 | – | 211 | log10 vapour pressure (mmHg): -0.75
90 | CCCCCCC(=O)CCCC | 2 | 227 | –
91 | COS(=O)(=O)c1ccc([N+](=O)[O-])cc1 | 94 | – | –
92 | CCCCS/C(=N\c1cccnc1)SCc1ccc(C(C)(C)C)cc1 | 32 | – | –
93 | SC1=NCCCN1 | 211 | – | –
94 | CCCCCCCCCCCCCCCCCCOS(=O)(=O)[O][Na] | – | – | ready biodegradability: readily biodegradable
95 | CCOC(=O)C(CC)(CC)C(C)=O | – | 216 | –
96 | Nc1ccc(S(N)(=O)=O)cc1 | – | – | ready biodegradability: not readily biodegradable

Row | SMILES | melting point [°C] | boiling point [°C] | further results
97 | CCOC(=O)N(C)N=O | – | – | log10 vapour pressure (mmHg): 0.0719
98 | CC1(C)CNC(=NN=C(/C=C/c2ccc(C(F)(F)F)cc2)/C=C/c2ccc(C(F)(F)F)cc2)NC1 | 188 | – | log10 Koc (L/kg): 5.86; log10 vapour pressure (mmHg): -7.69
99 | C1=CC=CC=CC=C1 | -4.7 | 140 | log10 vapour pressure (mmHg): 0.892
100 | O=[N+]([O-])c1cc(Cl)c(O)c(Cl)c1 | 127 | – | –
101 | COC(=O)CC(C)C | – | 116 | log10 vapour pressure (mmHg): 1.15
102 | Cc1ccc2c(C)cccc2c1 | -16.9 | 264 | log10 vapour pressure (mmHg): -1.84
103 | Ic1ccc(I)cc1 | 132 | 285 | –
104 | CCNC(=O)NC(=O)/C(C#N)=N/OC | 160 | – | log10 Koc (L/kg): 2.09; log10 vapour pressure (mmHg): -5.95
105 | O=C(Oc1cccc(O)c1)c1ccccc1 | 134 | – | ready biodegradability: readily biodegradable
106 | Cc1csc(S)n1 | 89.3 | – | –
107 | ClC(Cl)Br | -57 | 90 | log10 Henry constant (atm·m³/mol): -2.67; log10 Koc (L/kg): 1.78; ready biodegradability: readily biodegradable
108 | O[C@@H]1CO[C@H]2[C@@H]1OC[C@@H]2O | 75.2 | – | –
109 | OC[C@H]1O[C@H](OC[C@H]2O[C@H](O)[C@H](O)[C@@H](O)[C@@H]2O)[C@H](O)[C@@H](O)[C@H]1O | 86 | – | –
110 | C=CCC#N | -87 | 119 | log10 vapour pressure (mmHg): 1.27
111 | Cc1nc(C(F)(F)F)c(C(O)=Nc2c(Br)cc(OC(F)(F)F)cc2Br)s1 | 178 | – | –
112 | Cc1cc2ccccc2o1 | – | 198 | log10 vapour pressure (mmHg): -0.312
113 | CC1CNC(C)CN1 (stereo not drawn) | 116 | 163 | log10 vapour pressure (mmHg): 0.422
114 | CCCC/C=C\C(C)(C)O | – | 177 | –
115 | CC1CC1C (stereo not drawn) | -145 | 32.6 | –
116 | NC(=O)c1cccs1 | 182 | – | –
117 | CCCCC[Si](Cl)(Cl)Cl | – | 172 | –
118 | c1ccc(C2OCCCO2)cc1 | 41 | 253 | –
119 | CCCOC(=O)c1ccccc1C(=O)OCCC | – | 318 | log10 vapour pressure (mmHg): -3.88
120 | O=C(OC(=O)C(c1ccccc1)c1ccccc1)C(c1ccccc1)c1ccccc1 | 98 | – | –
